# According to ChEMBL document CHEMBL3763146 (J Med Chem, 2016):
# Tests used:
# Cynomolgus monkey [1] = assay: Toxicity in cynomolgus monkey assessed as postmortem parameters measured up to 9 months; format: organism-based, Macaca fascicularis; settings: in vivo
# [2] = Plasma clearance in cynomolgus monkey at 0.5 mg/kg, iv or 2 mg/kg, po; format: ADME, organism-based, Macaca fascicularis
# Cynomolgus monkey [3] = assay: Unbound clearance in cynomolgus monkey at 0.5 mg/kg, iv or 2 mg/kg, po; format: ADME, organism-based, Macaca fascicularis; settings: in vivo
# [4] = Half life in cynomolgus monkey at 0.5 mg/kg, iv or 2 mg/kg, po; format: ADME, organism-based, Macaca fascicularis; settings: in vivo
# Cynomolgus monkey [5] = assay: Dose normalized total AUC in cynomolgus monkey at 2 mg/kg, po; format: ADME, organism-based, Macaca fascicularis; settings: in vivo
# Cynomolgus monkey [6] = assay: Dose normalized fAUC in cynomolgus monkey at 2 mg/kg, po; format: ADME, organism-based, Macaca fascicularis; settings: in vivo
# [7] = Oral bioavailability in cynomolgus monkey at 2 mg/kg; format: ADME, organism-based, Macaca fascicularis; settings: in vivo
# [8] = Fraction unbound in cynomolgus monkey at 0.5 mg/kg, iv or 2 mg/kg, po; format: ADME, organism-based, Macaca fascicularis; settings: in vivo
# [9] = target: Beta-3 adrenergic receptor (Canis lupus familiaris, UniProt O02662); assay: Agonist activity at dog beta3 adrenergic receptor expressed in CHO cells assessed as accumulation of cAMP after 30 mins by TR-FRET assay; format: functional, cell-based
# Chain of Beta-3 adrenergic receptor (Canis lupus familiaris, UniProt O02662) (O02662 whole entry): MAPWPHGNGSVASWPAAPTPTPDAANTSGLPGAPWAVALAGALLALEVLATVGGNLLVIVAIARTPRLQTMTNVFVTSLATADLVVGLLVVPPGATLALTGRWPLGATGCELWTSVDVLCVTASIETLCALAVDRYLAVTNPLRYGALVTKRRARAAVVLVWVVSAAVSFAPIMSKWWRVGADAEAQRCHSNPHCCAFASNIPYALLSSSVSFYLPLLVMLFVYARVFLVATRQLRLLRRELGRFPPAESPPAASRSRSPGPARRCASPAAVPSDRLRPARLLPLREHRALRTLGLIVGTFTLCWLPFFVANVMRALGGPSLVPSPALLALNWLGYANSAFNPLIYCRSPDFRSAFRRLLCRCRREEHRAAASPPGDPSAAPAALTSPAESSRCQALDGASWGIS
# Cytochrome P450 1A2 = Cytochrome P450 1A2 (Homo sapiens, UniProt P05177); assay: Inhibition of CYP1A2 in human liver microsomes; format: ADME
# Chain of Cytochrome P450 1A2 (P05177 whole entry): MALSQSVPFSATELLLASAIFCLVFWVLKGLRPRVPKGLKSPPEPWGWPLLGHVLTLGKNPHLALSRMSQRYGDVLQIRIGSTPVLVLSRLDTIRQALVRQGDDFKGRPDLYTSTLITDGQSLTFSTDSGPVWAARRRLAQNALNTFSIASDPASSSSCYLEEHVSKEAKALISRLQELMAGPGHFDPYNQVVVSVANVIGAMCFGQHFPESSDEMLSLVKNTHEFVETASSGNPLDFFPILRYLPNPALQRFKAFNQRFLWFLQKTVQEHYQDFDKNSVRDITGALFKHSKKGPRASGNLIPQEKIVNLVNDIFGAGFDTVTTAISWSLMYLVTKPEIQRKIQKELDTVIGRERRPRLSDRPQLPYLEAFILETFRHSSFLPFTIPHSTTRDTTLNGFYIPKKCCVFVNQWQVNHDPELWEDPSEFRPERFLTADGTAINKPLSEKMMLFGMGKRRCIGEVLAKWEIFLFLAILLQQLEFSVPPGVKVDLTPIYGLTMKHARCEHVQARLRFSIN
# Cytochrome P450 2C19 = Cytochrome P450 2C19 (Homo sapiens, UniProt P33261); assay: Inhibition of CYP2C19 in human liver microsomes; format: ADME
# Cytochrome P450 3A4 [10] = target: T1, Cytochrome P450 3A4 (Homo sapiens, UniProt P08684); assay: Induction of CYP3A4 activity in human hepatocytes up to 10 uM; format: ADME, cell-based, Hepatocyte
# T1 sequence (P08684 whole entry): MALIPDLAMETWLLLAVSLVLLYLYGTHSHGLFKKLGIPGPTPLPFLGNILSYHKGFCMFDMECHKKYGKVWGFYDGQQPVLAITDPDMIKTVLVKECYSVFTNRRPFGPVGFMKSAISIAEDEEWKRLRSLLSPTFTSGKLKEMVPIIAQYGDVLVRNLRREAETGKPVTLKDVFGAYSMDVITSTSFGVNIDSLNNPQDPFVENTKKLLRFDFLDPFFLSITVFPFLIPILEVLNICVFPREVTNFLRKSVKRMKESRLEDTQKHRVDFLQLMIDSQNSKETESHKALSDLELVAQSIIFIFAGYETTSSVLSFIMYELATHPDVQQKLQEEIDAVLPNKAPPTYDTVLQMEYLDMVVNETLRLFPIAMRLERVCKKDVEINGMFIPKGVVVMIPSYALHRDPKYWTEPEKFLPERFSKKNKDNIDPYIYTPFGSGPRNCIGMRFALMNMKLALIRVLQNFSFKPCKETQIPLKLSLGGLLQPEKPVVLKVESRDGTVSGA
# [11] = target: T2, Beta-3 adrenergic receptor (Homo sapiens, UniProt P13945); assay: Agonist activity at human adrenergic beta3 receptor expressed in CHO cells assessed as accumulation of cAMP after 30 mins by TR-FRET assay in presence of 40% serum relative to (R)-(-)-isoproterenol; format: functional, cell-based
# T2 sequence (P13945 whole entry, looked up): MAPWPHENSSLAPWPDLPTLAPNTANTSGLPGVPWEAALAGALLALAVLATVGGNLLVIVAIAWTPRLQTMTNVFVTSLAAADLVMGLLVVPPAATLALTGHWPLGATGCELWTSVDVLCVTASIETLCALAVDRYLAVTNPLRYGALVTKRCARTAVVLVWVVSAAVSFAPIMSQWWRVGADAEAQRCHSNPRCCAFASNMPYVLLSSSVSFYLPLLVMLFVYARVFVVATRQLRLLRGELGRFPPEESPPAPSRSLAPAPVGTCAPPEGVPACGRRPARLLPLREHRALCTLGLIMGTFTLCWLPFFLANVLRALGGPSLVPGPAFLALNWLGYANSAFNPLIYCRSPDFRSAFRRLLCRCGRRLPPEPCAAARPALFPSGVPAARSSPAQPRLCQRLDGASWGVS
# [12] = target: Beta-3 adrenergic receptor (Rattus norvegicus) (UniProt P26255); assay: Agonist activity at rat beta3 adrenergic receptor expressed in CHO cells assessed as accumulation of cAMP after 30 mins by TR-FRET assay in presence of 40% serum relative to (R)-(-)-isoproterenol; format: functional, cell-based
# Chain of Beta-3 adrenergic receptor (Rattus norvegicus) (P26255 whole entry): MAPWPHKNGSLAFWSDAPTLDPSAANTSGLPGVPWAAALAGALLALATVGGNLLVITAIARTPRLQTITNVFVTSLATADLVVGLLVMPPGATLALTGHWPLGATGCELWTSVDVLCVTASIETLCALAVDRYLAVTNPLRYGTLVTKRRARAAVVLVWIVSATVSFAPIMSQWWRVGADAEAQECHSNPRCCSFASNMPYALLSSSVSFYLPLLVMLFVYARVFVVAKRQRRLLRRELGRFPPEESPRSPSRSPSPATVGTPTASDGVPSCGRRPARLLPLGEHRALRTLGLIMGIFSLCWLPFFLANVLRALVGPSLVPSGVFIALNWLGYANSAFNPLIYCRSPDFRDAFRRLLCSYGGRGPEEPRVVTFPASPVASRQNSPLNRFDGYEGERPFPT
# [13] = target: Beta-3 adrenergic receptor (Macaca mulatta) (UniProt Q28524); assay: Agonist activity at rhesus monkey beta3 adrenergic receptor expressed in CHO cells assessed as accumulation of cAMP after 30 mins by TR-FRET assay in presence of 40% serum relative to (R)-(-)-isoproterenol; format: functional, cell-based
# Chain of Beta-3 adrenergic receptor (Macaca mulatta) (Q28524 whole entry): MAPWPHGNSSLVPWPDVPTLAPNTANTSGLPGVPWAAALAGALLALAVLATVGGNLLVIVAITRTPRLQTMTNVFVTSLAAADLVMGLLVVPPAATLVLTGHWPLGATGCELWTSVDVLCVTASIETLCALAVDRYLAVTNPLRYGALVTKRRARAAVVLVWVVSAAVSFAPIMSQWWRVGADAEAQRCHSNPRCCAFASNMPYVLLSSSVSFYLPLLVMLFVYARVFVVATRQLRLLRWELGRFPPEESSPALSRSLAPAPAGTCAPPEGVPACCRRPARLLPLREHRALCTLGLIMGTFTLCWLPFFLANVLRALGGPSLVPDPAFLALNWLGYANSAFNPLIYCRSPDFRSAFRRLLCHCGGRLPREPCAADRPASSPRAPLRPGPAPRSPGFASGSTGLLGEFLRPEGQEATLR
# [14] = Induction of phospholidosis in human HepG2 cells incubated overnight by […] in presence of fluorescent labeled phospholipid probe NBD-PE; format: cell-based; settings: read-out: A50
# [15] = Distribution coefficient, logD of the compound at pH 7.4; format: physicochemical; settings: octanol/water
# [16] = target: Sodium channel protein type 2 subunit alpha (Homo sapiens, UniProt Q99250); assay: Inhibition of human Nav1.2 channel expressed in Xenopus oocytes by two-intracellular microelectrode voltage clamp method; format: cell-based
# [17] = target: Voltage-dependent L-type calcium channel subunit alpha-1C (Homo sapiens, UniProt Q13936); assay: Displacement of [3H]-diltiazem from human Cav1.2 channel
# Chain of Voltage-dependent L-type calcium channel subunit alpha-1C (Q13936 whole entry): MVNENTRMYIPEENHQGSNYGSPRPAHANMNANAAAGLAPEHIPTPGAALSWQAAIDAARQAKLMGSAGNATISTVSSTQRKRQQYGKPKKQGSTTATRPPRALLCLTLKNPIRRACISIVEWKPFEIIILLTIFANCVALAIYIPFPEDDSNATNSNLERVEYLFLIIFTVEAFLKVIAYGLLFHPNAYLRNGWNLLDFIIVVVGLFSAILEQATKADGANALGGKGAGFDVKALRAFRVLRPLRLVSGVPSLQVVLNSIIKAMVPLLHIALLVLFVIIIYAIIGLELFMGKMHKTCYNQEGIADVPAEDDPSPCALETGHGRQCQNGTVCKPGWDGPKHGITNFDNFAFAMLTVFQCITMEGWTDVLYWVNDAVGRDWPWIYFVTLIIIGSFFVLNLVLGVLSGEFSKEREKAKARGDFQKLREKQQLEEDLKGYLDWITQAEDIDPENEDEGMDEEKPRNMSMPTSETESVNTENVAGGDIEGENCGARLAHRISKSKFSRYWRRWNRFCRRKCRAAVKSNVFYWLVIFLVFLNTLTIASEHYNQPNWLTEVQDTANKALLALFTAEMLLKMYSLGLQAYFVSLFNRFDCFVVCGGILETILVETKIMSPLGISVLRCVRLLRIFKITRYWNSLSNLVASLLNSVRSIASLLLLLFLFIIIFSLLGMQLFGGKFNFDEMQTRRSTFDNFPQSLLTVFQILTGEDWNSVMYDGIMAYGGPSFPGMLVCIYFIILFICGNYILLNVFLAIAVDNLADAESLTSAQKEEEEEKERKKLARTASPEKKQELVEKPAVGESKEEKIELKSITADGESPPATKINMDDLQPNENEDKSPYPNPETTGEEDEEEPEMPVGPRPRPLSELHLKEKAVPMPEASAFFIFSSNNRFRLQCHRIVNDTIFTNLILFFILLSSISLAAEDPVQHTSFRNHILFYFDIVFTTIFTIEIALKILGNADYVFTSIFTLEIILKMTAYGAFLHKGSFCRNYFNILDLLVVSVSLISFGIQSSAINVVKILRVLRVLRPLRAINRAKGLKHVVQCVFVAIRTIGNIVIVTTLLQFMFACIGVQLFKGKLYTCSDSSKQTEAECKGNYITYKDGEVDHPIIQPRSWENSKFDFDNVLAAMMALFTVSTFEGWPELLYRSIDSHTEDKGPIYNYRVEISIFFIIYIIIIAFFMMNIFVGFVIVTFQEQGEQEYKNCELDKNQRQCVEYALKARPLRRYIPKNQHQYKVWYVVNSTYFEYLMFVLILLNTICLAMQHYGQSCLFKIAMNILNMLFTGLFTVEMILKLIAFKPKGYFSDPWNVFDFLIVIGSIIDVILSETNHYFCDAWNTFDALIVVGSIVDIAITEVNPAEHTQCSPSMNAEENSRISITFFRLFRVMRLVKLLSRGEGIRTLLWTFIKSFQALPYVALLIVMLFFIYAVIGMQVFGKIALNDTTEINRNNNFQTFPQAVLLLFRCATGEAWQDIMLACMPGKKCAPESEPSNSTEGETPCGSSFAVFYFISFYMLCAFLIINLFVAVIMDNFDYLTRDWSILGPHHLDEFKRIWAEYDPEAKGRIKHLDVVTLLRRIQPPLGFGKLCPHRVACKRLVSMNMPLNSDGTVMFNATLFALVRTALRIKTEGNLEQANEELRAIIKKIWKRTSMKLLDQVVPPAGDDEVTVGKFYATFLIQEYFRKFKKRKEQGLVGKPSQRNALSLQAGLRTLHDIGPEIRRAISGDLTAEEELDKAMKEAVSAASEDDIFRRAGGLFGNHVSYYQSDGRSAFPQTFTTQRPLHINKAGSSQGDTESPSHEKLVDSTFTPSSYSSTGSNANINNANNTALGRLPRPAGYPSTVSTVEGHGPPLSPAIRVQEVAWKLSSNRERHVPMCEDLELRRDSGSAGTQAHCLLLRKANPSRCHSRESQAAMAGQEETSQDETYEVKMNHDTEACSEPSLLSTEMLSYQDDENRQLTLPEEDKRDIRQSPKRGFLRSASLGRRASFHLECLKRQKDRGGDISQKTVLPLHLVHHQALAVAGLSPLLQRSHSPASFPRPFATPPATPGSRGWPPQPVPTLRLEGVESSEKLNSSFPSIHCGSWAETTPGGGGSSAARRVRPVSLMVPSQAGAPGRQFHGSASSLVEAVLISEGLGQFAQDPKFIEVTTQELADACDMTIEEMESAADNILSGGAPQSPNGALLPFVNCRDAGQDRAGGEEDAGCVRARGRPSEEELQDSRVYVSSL
# Cytochrome P450 3A4 [18] = target: T1, Cytochrome P450 3A4; assay: Inhibition of CYP3A4 in human liver microsomes assessed as testosterone 6beta-hydroxylation; format: ADME
# Cytochrome P450 2D6 = Cytochrome P450 2D6 (Homo sapiens, UniProt P10635); assay: Inhibition of CYP2D6 in human liver microsomes assessed as dextraomethorphan O-demethylation; format: ADME
# [19] = target: T2, Beta-3 adrenergic receptor; assay: Agonist activity at human beta3 adrenergic receptor expressed in CHO cells assessed as accumulation of cAMP after 30 mins by TR-FRET assay relative to (R)-(-)-isoproterenol; format: functional, cell-based
# [20] = Plasma clearance in dog at 0.5 mg/kg, iv or 2 mg/kg, po; format: ADME, organism-based, Canis lupus familiaris
# [21] = Plasma clearance in rhesus monkey at 0.5 mg/kg, iv or 2 mg/kg, po; format: ADME, organism-based, Macaca mulatta
# Canis familiaris [22] = assay: Unbound clearance in dog at 0.5 mg/kg, iv or 2 mg/kg, po; format: ADME, organism-based, Canis lupus familiaris; settings: in vivo
# Rhesus monkey = assay: Unbound clearance in rhesus monkey at 0.5 mg/kg, iv or 2 mg/kg, po; format: ADME, organism-based, Macaca mulatta; settings: in vivo
# [23] = Half life in rhesus monkey at 0.5 mg/kg, iv or 2 mg/kg, po; format: ADME, organism-based, Macaca mulatta; settings: in vivo
# Rattus norvegicus [24] = assay: Dose normalized total AUC in rat at 2 mg/kg, po; format: ADME, organism-based; settings: in vivo
# Canis familiaris [25] = assay: Dose normalized total AUC in dog at 2 mg/kg, po; format: ADME, organism-based, Canis lupus familiaris; settings: in vivo
# Canis familiaris [26] = assay: Dose normalized fAUC in dog at 2 mg/kg, po; format: ADME, organism-based, Canis lupus familiaris; settings: in vivo
# [27] = Oral bioavailability in rat at 2 mg/kg; format: ADME, organism-based; settings: in vivo
# [28] = Oral bioavailability in dog at 2 mg/kg; format: ADME, organism-based, Canis lupus familiaris; settings: in vivo
# [29] = Fraction unbound in rhesus monkey at 0.5 mg/kg, iv or 2 mg/kg, po; format: ADME, organism-based, Macaca mulatta; settings: in vivo
# [30] = Intrinsic clearance in rat liver microsomes; format: ADME; settings: read-out: CLH
# [31] = Intrinsic clearance in human liver microsomes; format: ADME; settings: read-out: CLH
# [32] = Intrinsic clearance in rhesus monkey liver microsomes; format: ADME, Macaca mulatta; settings: read-out: CLH
# [33] = Stability in rhesus monkey plasma assessed as parent compound remaining at 24 hrs by LC-MS analysis; format: ADME, cell-free, Macaca mulatta; settings: read-out: Stability
# [34] = target: T3, Beta-3 adrenergic receptor (Macaca mulatta, UniProt Q28524); assay: Agonist activity at rhesus monkey beta3 adrenergic receptor expressed in CHO cells assessed as accumulation of cAMP after 30 mins by TR-FRET assay; format: functional, cell-based
# T3 sequence (Q28524 whole entry): as the sequence (Q28524 whole entry) above
# [35] = target: T3, Beta-3 adrenergic receptor; assay: Agonist activity at rhesus monkey beta3 adrenergic receptor expressed in CHO cells assessed as accumulation of cAMP after 30 mins by TR-FRET assay in presence of 40% serum; format: functional, cell-based
# Rattus norvegicus [36] = assay: Increase in detrusor muscle relaxation in iv infused Sprague-Dawley rat acetic acid-induced bladder hyperreflexia model assessed as decrease in micturition pressure measured over 30 to 45 mins; format: functional, organism-based
# Rattus norvegicus [37] = assay: Increase in detrusor muscle relaxation in iv infused Sprague-Dawley rat acetic acid-induced bladder hyperreflexia model assessed as increase in functional bladder capacity measured over 30 to 45 mins; format: organism-based
# Rattus norvegicus [38] = assay: Increase in circulating glycerol level in iv infused Sprague-Dawley rat after 45 mins by liquid chromatography-tandem mass spectrometric analysis; format: functional
# Rattus norvegicus [39] = assay: Increase in circulating free fatty acid level in iv infused Sprague-Dawley rat after 45 mins by liquid chromatography-tandem mass spectrometric analysis; format: functional
# [40] = Drug recovery in bile duct cannulated rat urine at 10 mg/kg, po measured over 48 hrs; format: ADME, organism-based; settings: read-out: Drug recovery
# [41] = Drug recovery in bile duct cannulated rat urine at 5 mg/kg, iv measured over 48 hrs; format: ADME, organism-based; settings: read-out: Drug recovery
# [42] = Drug recovery in bile duct cannulated rat feces at 5 mg/kg, iv measured over 48 hrs; format: ADME, organism-based; settings: faeces, read-out: Drug recovery
# [43] = Solubility of the compound in simulated gastric fluid; format: ADME
# [44] = Solubility of the compound in fed-simulated intestinal fluid; format: ADME; settings: fed-state simulated intestinal fluid
# [45] = Chemical stability of the compound under forced degradation condition; format: physicochemical
# Rattus norvegicus [46] = species: Rattus norvegicus; assay: Toxicity in Sprague-Dawley rat assessed as postmortem parameters measured up to 6 months; format: organism-based; settings: in vivo
smiles,measurement,setting,value
O=C(Nc1ccc(C[C@@H]2CC[C@H]([C@H](O)c3ccccc3)N2)cc1)[C@@H]1CCc2nccc(=O)n21 [VIBEGRON],Activity,Cynomolgus monkey [1],Non-toxic
same,clearance,[2],20 mL/min/kg
same,CL free,Cynomolgus monkey [3],34 mL/min/kg
same,half-life,[4],7 h
same,AUC/dose,Cynomolgus monkey [5],870 nM·h/mg/kg
same,fAUC/dose,Cynomolgus monkey [6],500 nM·h/mg/kg
same,bioavailability,[7],46%
same,fraction unbound,[8],0.58
same,EC50,[9],0.011 µM
same,IC50,Cytochrome P450 1A2,> 100 µM
same,IC50,Cytochrome P450 2C19,> 100 µM
same,Activity,Cytochrome P450 3A4 [10],Not Active
same,max activation,[11],101%
same,max activation,[12],89%
same,max activation,[13],103%
same,AC50,[14],> 70 µM
same,logD,[15],0.9
same,IC50,[16],> 30 µM
same,IC50,[17],> 30 µM
same,IC50,Cytochrome P450 3A4 [18],> 100 µM
same,IC50,Cytochrome P450 2D6,> 100 µM
same,max activation,[19],84%
same,clearance,[20],15 mL/min/kg
same,clearance,[21],16 mL/min/kg
same,CL free,Canis familiaris [22],37 mL/min/kg
same,CL free,Rhesus monkey,33 mL/min/kg
same,half-life,[23],14 h
same,AUC/dose,Rattus norvegicus [24],540 nM·h/mg/kg
same,AUC/dose,Canis familiaris [25],1200 nM·h/mg/kg
same,fAUC/dose,Canis familiaris [26],490 nM·h/mg/kg
same,bioavailability,[27],20%
same,bioavailability,[28],44%
same,fraction unbound,[29],0.49
same,CLint scaled,[30],20 mL/min/kg
same,CLint scaled,[31],< 10 mL/min/kg
same,CLint scaled,[32],18 mL/min/kg
same,remaining at 24 h,[33],93%
same,EC50,[34],0.00057 µM
same,EC50,[35],0.0071 µM
same,Activity,Rattus norvegicus [36],Dose-dependent effect
same,Activity,Rattus norvegicus [37],Dose-dependent effect
same,Activity,Rattus norvegicus [38],Dose-dependent effect
same,minimal effective dose,"Rattus norvegicus [38]; 0.75 h, read-out: MED",0.3 mg/kg
same,Activity,Rattus norvegicus [39],Dose-dependent effect
same,minimal effective dose,"Rattus norvegicus [39]; 0.75 h, read-out: MED",0.3 mg/kg
same,dose excreted at 48 h,[40],32%
same,dose excreted at 48 h,[41],37%
same,dose excreted at 48 h,[42],13%
same,solubility,[43],> 4000 µg/mL
same,solubility,[44],> 4000 µg/mL
same,Stability,[45],Stable
same,Activity,Rattus norvegicus [46],Non-toxic
